Experimental data as given in the NIST ThermoML archive (doi:10.1016/j.jct.2017.03.027).
± gives the expanded uncertainty stated by the source.

Tests used:
[1] = molar heat capacity at constant pressure; conditions: 100 kPa, Liquid, Large sample (1 g) DSC
[2] = 100 kPa, Liquid, Vibrating tube method
[3] = molar heat capacity at constant pressure; xn = mol fraction of the nth substance listed; conditions: 100 kPa, Liquid, Large sample (1 g) DSC, x2 = 0
[4] = xn = mol fraction of the nth substance listed; conditions: 100 kPa, Liquid, Vibrating tube method, x2 = 0

SMILES	molar heat capacity at constant pressure ([1]; 298.6 K)	molar heat capacity at constant pressure ([1]; 308.5 K)	molar heat capacity at constant pressure ([1]; 318.5 K)	molar heat capacity at constant pressure ([1]; 328.4 K)	mass density ([2]; 298.15 K)	mass density ([2]; 308.15 K)	mass density ([2]; 318.15 K)	mass density ([2]; 328.15 K)	molar heat capacity at constant pressure ([3]; 298.6 K)	molar heat capacity at constant pressure ([3]; 308.5 K)	molar heat capacity at constant pressure ([3]; 318.5 K)	molar heat capacity at constant pressure ([3]; 328.4 K)	mass density ([4]; 298.15 K)	mass density ([4]; 308.15 K)	mass density ([4]; 318.15 K)	mass density ([4]; 328.15 K)
Cc1ccc(C(C)C)cc1 [1-(1-methylethyl)-4-methylbenzene]	240.3 ± 3.9 J/K/mol	244.7 ± 4 J/K/mol	249.4 ± 4.1 J/K/mol	254.4 ± 4.1 J/K/mol	852.93 ± 0.71 kg/m3	844.89 ± 0.71 kg/m3	836.81 ± 0.71 kg/m3	828.69 ± 0.71 kg/m3								
CCO [ethanol]	112 ± 1.8 J/K/mol	116.4 ± 1.9 J/K/mol	121 ± 2 J/K/mol	125.6 ± 2 J/K/mol	785.11 ± 0.71 kg/m3	776.44 ± 0.71 kg/m3	767.62 ± 0.71 kg/m3	758.6 ± 0.71 kg/m3								
CCO [ethanol] + Cc1ccc(C(C)C)cc1									112 ± 1.8 J/K/mol	116.4 ± 1.9 J/K/mol	121 ± 2 J/K/mol	125.6 ± 2 J/K/mol	785.11 ± 0.71 kg/m3	776.44 ± 0.71 kg/m3	767.62 ± 0.71 kg/m3	758.6 ± 0.71 kg/m3
